Experimental data from PMC5622107, “Small molecule inhibition of cGAS reduces interferon expression in primary macrophages from autoimmune mice” (Nature Communications, 2017).
Values joined by “and” are separate entries in the source; they are usually repeats but may differ in a detail not shown here. Equal values may be shown once. “Also recorded” adds a separate entry of the source. Each block holds one compound with its values, some of them ahead of it.

How the values were obtained:
45-bp dsDNA = assay: DNA intercalation: acridine orange displacement from dsDNA by fluorescence polarization; format: binding
Procedure, shortened: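 Acridine orange displacement from 45-bp dsDNA in HEN buffer (10 mM HEPES pH 7.5, 1 mM EDTA, 100 mM NaCl), compounds at 30 µM final, 30 min incubation. Fluorescence polarization read in mP, buffer-corrected, G-factor 1.0; mitoxantrone 50 µM and DMSO as controls.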

cGAS/dsDNA complex = target: T1, cGAS/dsDNA complex (Mus musculus, UniProt Q8C6L5); assay: Isothermal titration calorimetry, compound titrated into cGAS/dsDNA complex; format: binding
T1 construct: full-length (for high-throughput screening) and residues 147–507 (for structural study) of cGAS; His6-SUMO (N, cleaved yes); made in house; host or cells: E. coli BL21(DE3) RIL
T1 sequence (Q8C6L5 147-507, one chain of several): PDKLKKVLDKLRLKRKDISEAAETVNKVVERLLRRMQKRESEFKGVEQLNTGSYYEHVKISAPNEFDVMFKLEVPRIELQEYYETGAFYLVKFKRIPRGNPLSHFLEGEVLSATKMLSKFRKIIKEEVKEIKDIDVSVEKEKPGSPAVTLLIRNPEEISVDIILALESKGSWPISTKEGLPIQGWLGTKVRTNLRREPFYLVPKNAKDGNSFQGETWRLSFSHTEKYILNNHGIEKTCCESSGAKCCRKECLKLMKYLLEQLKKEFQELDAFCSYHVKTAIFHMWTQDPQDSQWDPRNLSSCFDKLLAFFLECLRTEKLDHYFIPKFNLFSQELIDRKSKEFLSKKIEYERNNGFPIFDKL
Method: ITC measurements were performed at 25 °C using a MicroCal auto-iTC200 calorimeter (MicroCal, LLC). Purified truncated mouse cGAS was dialyzed against 40 mM HEPES buffer (pH 7.5) and 300 mM NaCl for 24 h at 4 °C. Dialysis led to some precipitation, which were removed through centrifugation followed by collection of the supernatant. The concentration of the protein in supernatant was measured using Pierce® BCA protein assay. The protein was flash frozen in liquid N2 and stored at −80 °C. For the ITC assay, the dialyzed protein was prediluted to 20 µM in the dialysis buffer and diluted to a final concentration of 10 µM in a final buffer containing 40 mM HEPES, 1% DMSO, 150 mM NaCl, 0.01% Tween-20 and + /− dsDNA 10 µM and + /− ATP or GTP 1 mM. Then, 2 μl RU.365 100 µM, dissolved in the buffer aforementioned, were injected into 0.2 ml of protein in the chamber every 150 s. Data for raw ITC and thermodynamic curves, each from one experiment, were downloaded after analysis using Affinimeter software and plotted using GraphPad Prism (7.01). The software calculates error bars as an indication of the contribution of the raw data noise that is determined from the integral of the standard deviation of the baseline during the injection.

[1] = system: cGAS activity in dsDNA-stimulated RAW macrophages; assay: Cellular luciferase assay, interferon-responsive reporter in dsDNA-stimulated RAW macrophages; format: cell-based; details: Mus musculus, Macrophage, dsDNA-activated RAW cells
Method: (§1) The sequence and annealing conditions of the dsDNA used is described above. Typically, 0.4 µg or 0.6 µg of dsDNA was used to stimulate RAW-Lucia ISG-KO-TREX1/ISG-KO-cGAS or RAW-Lucia ISG cells, respectively, which equated to 90% of maximal luciferase activity observed. dsDNA stimulation of RAW macrophages and subsequent luciferase measurements were performed with or without the addition of small molecules at indicated concentrations in each figure, or with DMSO as vehicle control. For the dose curve experiments, serial dilutions of inhibitors were applied to 6.7 × 10^5 cells, plated in 24-well dishes, and co-stimulated with 0.4 µg of dsDNA. In subsequent experiments using inhibitors in RAW cells, the small molecules were used at concentrations representing the derived EC75 values, while co-stimulated with one of the following: 0.4 µg dsDNA, 50 nM 5′ppp-HP20 hairpin RNA (a kind gift from Dr Anna Pyle, Yale University; sequence located in Supplementary Table 5), 10 µM cGAMP, or 100 U ml^−1 murine recombinant Ifnb (R&D Systems). dsDNA was transfected using Lipofectamine LTX. 5′ppp-HP20 RNA was transfected using Lipofectamine 2000. Cells were harvested 24 h post-transfection, washed with PBS, and lysed in 1× Luciferase Cell Lysis Buffer (Pierce).
(§2) The minimum numbers of biological and technical replicates for the luciferase assays were two and three, respectively. Analysis of luminescence values were evaluated for outliers (one standard deviation above and below the mean) for each biological replicate, and the resulting means were used to generate graphs in GraphPad Prism (v. 7.0c); where applicable, an unpaired t-test with Welch’s correction was used to compare the results of each individual compound to dsDNA or other stimulant. The experimental variances observed within control samples (untreated or vehicle) and treated samples were similar.

[2] = system: RAW macrophage cells stimulated with 5′ppp-HP20 RNA, Pam3CSK4, poly(I:C), LPS or recombinant Ifnb; assay: Selectivity: RAW macrophages stimulated with non-DNA immunogenic ligands (luciferase reporter or Il-6 qRT-PCR); format: cell-based, mouse
Method: as §1, §2
The small molecules were used at concentrations representing the EC75 values and were co-stimulated with either 200 ng Pam3CSK4 (Invivogen), 25 µg poly(I:C) or 100 ng lipopolysaccharide (Sigma-Aldrich) at the cell counts and conditions previously described for the cellular luciferase assays. Cells were harvested 24 h post-transfection, washed with PBS, and RNA was extracted using Trizol (Ambion) and chloroform (Sigma-Aldrich). In all, 1–2 µg of total RNA was reverse-transcribed using random hex primers and SuperScript III (Life Technologies) into cDNA. […] The expression of mRNAs […] murine Actb1 and Il-6 were measured (see Supplementary Table 5 for primer sequences used). Target C T values were normalized to Actb1 C T values and used to calculate ΔC T. mRNA expression of target genes were then calculated using the ΔΔC T method (2^ΔΔCT). Expression values were analyzed as described in the method for cellular luciferase assays.

[3] = cGAS in presence of dsDNA, no ATP/GTP

- Polarization (45-bp dsDNA; Supplementary Table 2, compound 30 µM): 264 mP
- T*ΔS (cGAS/dsDNA complex; cGAS in presence of dsDNA): -18.84 kJ/mol
- rM (cGAS/dsDNA complex; cGAS in presence of dsDNA): 0.9075
- ΔG (cGAS/dsDNA complex; cGAS in presence of dsDNA): -41.06 kJ/mol
- ΔH (cGAS/dsDNA complex; cGAS in presence of dsDNA): -59.915 kJ/mol
- Kd (cGAS/dsDNA complex; [3]): 0.0641 µM and 0.064 µM
- Kd (cGAS/dsDNA complex; cGAS/dsDNA + 1 mM ATP): 0.104 µM
- Kd (cGAS/dsDNA complex; cGAS/dsDNA + 1 mM GTP): 0.298 µM
- T*ΔS (cGAS/dsDNA complex; cGAS/dsDNA + ATP 1 mM): -10.43 kJ/mol
- rM (cGAS/dsDNA complex; cGAS/dsDNA + ATP 1 mM): 0.9605
- ΔG (cGAS/dsDNA complex; cGAS/dsDNA + ATP 1 mM): -39.85 kJ/mol
- ΔH (cGAS/dsDNA complex; cGAS/dsDNA + ATP 1 mM): -50.292 kJ/mol
- T*ΔS (cGAS/dsDNA complex; cGAS/dsDNA + GTP 1 mM): -15.35 kJ/mol
- rM (cGAS/dsDNA complex; cGAS/dsDNA + GTP 1 mM): 0.9257
- ΔG (cGAS/dsDNA complex; cGAS/dsDNA + GTP 1 mM): -37.25 kJ/mol
- ΔH (cGAS/dsDNA complex; cGAS/dsDNA + GTP 1 mM): -52.593 kJ/mol
- IC50 [1]: 4.98 µM
SMILES: Cc1nn(-c2nc3ccccc3[nH]2)c(O)c1C1OC(=O)c2ccccc21 (stereo not shown) [RU166365]
- % intercalation at 30 µM (45-bp dsDNA; Supplementary Table 2, acridine orange displacement compared to mitoxantrone): -6.7%
- Il-6 mRNA expression ([2]; cells activated by Pam3CSK4, poly(I:C), or LPS, qRT-PCR): increased Il-6 messenger RNA (mRNA) expression

- T*ΔS (cGAS/dsDNA complex; cGAS in presence of dsDNA): -25.66 kJ/mol
- rM (cGAS/dsDNA complex; cGAS in presence of dsDNA): 0.8071
- ΔG (cGAS/dsDNA complex; cGAS in presence of dsDNA): -42.468 kJ/mol
- ΔH (cGAS/dsDNA complex; cGAS in presence of dsDNA): -68.157 kJ/mol
- Kd (cGAS/dsDNA complex; [3]): 0.0362 µM
- IC50 [1]: 0.7 µM
SMILES: Cc1nn(-c2nc3ccc(Cl)c(Cl)c3[nH]2)c(O)c1C1OC(=O)c2ccccc21 (stereo not shown) [RU320521, 3-[1-(6,7-dichloro-1H-benzimidazol-2-yl)-5-hydroxy-3-methyl-pyrazol-4-yl]-3H-isobenzofuran-1-one]
- DNA intercalation or interaction (45-bp dsDNA; acridine orange competition screen): did not show any indication that it could act in a manner that could intercalate or interact with DNA
- inhibition of cells stimulated with recombinant Ifnb ([2]; JAK/STAT signaling, luciferase reporter): did not inhibit
- suppression of activation by immunogenic stimuli other than dsDNA ([2]; compound at EC75, 5′ppp-HP20 RNA, Pam3CSK4, poly(I:C), LPS, Ifnb, listed as RU.521): unable to potently suppress activation; also recorded: little to no inhibitory effects
